Patent publication US20260232666A1, “COMPOSITIONS AND METHODS FOR INHIBITION OF RAS” (TheRas, Inc., priority 2023, published 2026)

biological target: T1, GTP-loaded KRAS4b (amino acids 1-169) G12C/C118S protein (Homo sapiens, UniProt P01116, C118S/G12C); assay: Covalent cysteine 12 modification by MALDI-TOF MS, GTP-loaded KRAS G12C; format: binding; settings: 15 minutes reaction time point
T1 construct: KRAS4b (amino acids 1-169) G12C/C118S protein; made in house
Procedure, shortened: (§1)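 1 μM protein + cpd (1:2.5), HEPES 20 mM/NaCl 150 mM/MgCl2 1 mM pH 7.3, RT, dark, 15 min. Linear MALDI-TOF, sinapinic acid matrix. % mod = modified/(modified + unmodified) peak height.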

| Structure (SMILES) | GTP-KRAS G12C percent of modification |
| --- | --- |
| C=CC(=O)N1CC[C@@H](N(C)c2nc(OC[C@@H]3CC4(CC4)CN3C)nc3c(F)c(-c4ccc(F)c5sc(N)c(C#N)c45)c(C(F)(F)F)cc23)[C@@H]1C [Compound 112] | D (percent of modification <10%) |
| C=CC(=O)N1CC[C@@H](N(C)c2nc(OC[C@@]34CCCN3C[C@H](F)C4)nc3c(F)c(-c4nc(N)cc(C)c4C(F)(F)F)ccc23)[C@H]1C [Compound 115] | A (percent of modification ≥70%) |
| C=CC(=O)N1CC[C@@H](N(C)c2nc(OC[C@@H]3CCCN3C)nc3c(F)c(-c4nc(N)cc(C)c4C(F)(F)F)c(C(F)(F)F)cc23)[C@H]1C [Compound 122] | B (50≤percent of modification <70%) |
| C=CC(=O)N1CC[C@@H](N(CC)c2nc(OC[C@@H]3CCCN3C)nc3cc(-c4ccc(F)c5sc(N)c(C#N)c45)c(F)cc23)[C@H]1C [Compound 138] | A (percent of modification ≥70%) |
| C=CC(=O)N1CC[C@@H](N(CC)c2nc(OC[C@@H]3C[C@@H](F)CN3C)nc3cc(-c4ccc(F)c5sc(N)c(C#N)c45)c(F)cc23)[C@H]1C [Compound 139] | A (percent of modification ≥70%) |
| C=CC(=O)N1CC[C@@H](N(CC)c2nc(OC[C@@H]3C[C@@H](OC)CN3C)nc3cc(-c4ccc(F)c5sc(N)c(C#N)c45)c(F)cc23)[C@H]1C [Compound 140] | A (percent of modification ≥70%) |
| C=CC(=O)N1CC[C@@H](N(CC)c2nc(OC[C@@H]3CCCN3C)nc3c(F)c(-c4ccc(F)c5sc(N)c(C#N)c45)ccc23)[C@H]1C [Compound 141] | A (percent of modification ≥70%) |
| C=CC(=O)N1CC[C@@H](N(CC)c2nc(OC[C@@H]3C[C@@H](F)CN3C)nc3c(F)c(-c4ccc(F)c5sc(N)c(C#N)c45)ccc23)[C@H]1C [Compound 142] | A (percent of modification ≥70%) |
| C=CC(=O)N1CC[C@@H](N(C)c2nc(OC[C@@H]3C[C@@H](F)CN3CC)nc3c(F)c(-c4ccc(F)c5sc(N)c(C#N)c45)c(C(F)(F)F)cc23)[C@@H]1C [Compound 144] | C (10%≤percent of modification <50%) |
| C=CC(=O)N1CC[C@@H](N(C)c2nc(OC[C@@H]3C[C@@H](F)CN3C)nc3c(F)c(-c4nc(N)cc(C)c4C(F)(F)F)c(C(F)(F)F)cc23)[C@H]1C [Compound 145] | C (10%≤percent of modification <50%) |
| C=CC(=O)N1C[C@H](N(C)c2nc(OC[C@@H]3CCCN3C)nc3c(F)c(-c4ccc(F)c5sc(N)c(C#N)c45)c(C(F)(F)F)cc23)C[C@H]1C [Compound 147] | A (percent of modification ≥70%) |
| C=CC(=O)N1C[C@H](N(C)c2nc(OC[C@@]34CCCN3C[C@H](F)C4)nc3cc(-c4ccc(F)c5sc(N)c(C#N)c45)c(F)cc23)C[C@H]1C [Compound 148] | A (percent of modification ≥70%) |
| C=CC(=O)N1CC[C@@H](N(CC)c2nc(OC[C@@]34CCCN3C[C@H](OC)C4)nc3cc(-c4ccc(F)c5sc(N)c(C#N)c45)c(F)cc23)[C@H]1C [Compound 149] | A (percent of modification ≥70%) |
| C=CC(=O)N1CC[C@@H](N(CC)c2nc(OC[C@@]34CCCN3C[C@H](OC)C4)nc3c(F)c(-c4ccc(F)c5sc(N)c(C#N)c45)c(C(F)(F)F)cc23)[C@H]1C [Compound 150] | A (percent of modification ≥70%) |

biological target: T2, GDP-loaded KRAS4b (amino acids 1-169) G12C/C118S protein (Homo sapiens, UniProt P01116, C118S/G12C); assay: Covalent cysteine 12 modification by MALDI-TOF MS, GDP-loaded KRAS G12C; format: binding; settings: 15 minutes reaction time point
T2 construct: KRAS4b (amino acids 1-169) G12C/C118S protein; made in house
Procedure, shortened: as §1

| Structure (SMILES) | GDP-KRAS G12C percent of modification |
| --- | --- |
| C=CC(=O)N1CC[C@@H](N(C)c2nc(OC[C@@H]3CC4(CC4)CN3C)nc3c(F)c(-c4ccc(F)c5sc(N)c(C#N)c45)c(C(F)(F)F)cc23)[C@@H]1C [Compound 112] | D (percent of modification <10%) |
| C=CC(=O)N1CC[C@@H](N(C)c2nc(OC[C@@]34CCCN3C[C@H](F)C4)nc3c(F)c(-c4nc(N)cc(C)c4C(F)(F)F)ccc23)[C@H]1C [Compound 115] | A (percent of modification ≥70%) |
| C=CC(=O)N1CC[C@@H](N(C)c2nc(OC[C@@H]3CCCN3C)nc3c(F)c(-c4nc(N)cc(C)c4C(F)(F)F)c(C(F)(F)F)cc23)[C@H]1C [Compound 122] | A (percent of modification ≥70%) |
| C=CC(=O)N1CC[C@@H](N(CC)c2nc(OC[C@@H]3CCCN3C)nc3cc(-c4ccc(F)c5sc(N)c(C#N)c45)c(F)cc23)[C@H]1C [Compound 138] | A (percent of modification ≥70%) |
| C=CC(=O)N1CC[C@@H](N(CC)c2nc(OC[C@@H]3C[C@@H](F)CN3C)nc3cc(-c4ccc(F)c5sc(N)c(C#N)c45)c(F)cc23)[C@H]1C [Compound 139] | A (percent of modification ≥70%) |
| C=CC(=O)N1CC[C@@H](N(CC)c2nc(OC[C@@H]3C[C@@H](OC)CN3C)nc3cc(-c4ccc(F)c5sc(N)c(C#N)c45)c(F)cc23)[C@H]1C [Compound 140] | A (percent of modification ≥70%) |
| C=CC(=O)N1CC[C@@H](N(CC)c2nc(OC[C@@H]3CCCN3C)nc3c(F)c(-c4ccc(F)c5sc(N)c(C#N)c45)ccc23)[C@H]1C [Compound 141] | A (percent of modification ≥70%) |
| C=CC(=O)N1CC[C@@H](N(CC)c2nc(OC[C@@H]3C[C@@H](F)CN3C)nc3c(F)c(-c4ccc(F)c5sc(N)c(C#N)c45)ccc23)[C@H]1C [Compound 142] | A (percent of modification ≥70%) |
| C=CC(=O)N1CC[C@@H](N(C)c2nc(OC[C@@H]3C[C@@H](F)CN3CC)nc3c(F)c(-c4ccc(F)c5sc(N)c(C#N)c45)c(C(F)(F)F)cc23)[C@@H]1C [Compound 144] | C (10%≤percent of modification <50%) |
| C=CC(=O)N1CC[C@@H](N(C)c2nc(OC[C@@H]3C[C@@H](F)CN3C)nc3c(F)c(-c4nc(N)cc(C)c4C(F)(F)F)c(C(F)(F)F)cc23)[C@H]1C [Compound 145] | A (percent of modification ≥70%) |
| C=CC(=O)N1C[C@H](N(C)c2nc(OC[C@@H]3CCCN3C)nc3c(F)c(-c4ccc(F)c5sc(N)c(C#N)c45)c(C(F)(F)F)cc23)C[C@H]1C [Compound 147] | A (percent of modification ≥70%) |
| C=CC(=O)N1C[C@H](N(C)c2nc(OC[C@@]34CCCN3C[C@H](F)C4)nc3cc(-c4ccc(F)c5sc(N)c(C#N)c45)c(F)cc23)C[C@H]1C [Compound 148] | A (percent of modification ≥70%) |
| C=CC(=O)N1CC[C@@H](N(CC)c2nc(OC[C@@]34CCCN3C[C@H](OC)C4)nc3cc(-c4ccc(F)c5sc(N)c(C#N)c45)c(F)cc23)[C@H]1C [Compound 149] | A (percent of modification ≥70%) |
| C=CC(=O)N1CC[C@@H](N(CC)c2nc(OC[C@@]34CCCN3C[C@H](OC)C4)nc3c(F)c(-c4ccc(F)c5sc(N)c(C#N)c45)c(C(F)(F)F)cc23)[C@H]1C [Compound 150] | A (percent of modification ≥70%) |

biological target: T3, Avi-KRAS G12C (1-169) GppNHp/RAF1 RBD-3×FLAG (52-151) (Homo sapiens, UniProt P01116, G12C); assay: Raf1 RBD-KRAS G12C-GppNHp disruption assay (protein:protein interaction HTRF); format: biochemical; settings: not given
T3 construct: Avi-KRAS G12C (1-169) GppNHp; Avi (N)
Procedure, shortened: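 HTRF measuring RAF1 RBD binding to GppNHp-loaded KRAS G12C (50 nM) in Tris pH 7.5, 100 mM NaCl, 5 mM MgCl2, 10% DMSO. Compound, KRAS, RBD and detection reagents each added sequentially with 1 h room-temperature incubations; 10-point titration; excitation 320 nm, emission 615 nm; activity as % of DMSO; IC50 derived.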

| Structure (SMILES) | IC50 |
| --- | --- |
| C=CC(=O)N1CC[C@@H](N(C)c2nc(OC[C@@H]3CC4(CC4)CN3C)nc3c(F)c(-c4ccc(F)c5sc(N)c(C#N)c45)c(C(F)(F)F)cc23)[C@@H]1C [Compound 112] | 500 to 5000 nM |
| C=CC(=O)N1CC[C@@H](N(C)c2nc(OC[C@@]34CCCN3C[C@H](F)C4)nc3c(F)c(-c4nc(N)cc(C)c4C(F)(F)F)ccc23)[C@H]1C [Compound 115] | < 500 nM |
| C=CC(=O)N1CC[C@@H](N(C)c2nc(OC[C@@H]3CCCN3C)nc3c(F)c(-c4nc(N)cc(C)c4C(F)(F)F)c(C(F)(F)F)cc23)[C@H]1C [Compound 122] | < 500 nM |
| C=CC(=O)N1CC[C@@H](N(CC)c2nc(OC[C@@H]3CCCN3C)nc3cc(-c4ccc(F)c5sc(N)c(C#N)c45)c(F)cc23)[C@H]1C [Compound 138] | < 500 nM |
| C=CC(=O)N1CC[C@@H](N(CC)c2nc(OC[C@@H]3C[C@@H](F)CN3C)nc3cc(-c4ccc(F)c5sc(N)c(C#N)c45)c(F)cc23)[C@H]1C [Compound 139] | < 500 nM |
| C=CC(=O)N1CC[C@@H](N(CC)c2nc(OC[C@@H]3C[C@@H](OC)CN3C)nc3cc(-c4ccc(F)c5sc(N)c(C#N)c45)c(F)cc23)[C@H]1C [Compound 140] | < 500 nM |
| C=CC(=O)N1CC[C@@H](N(CC)c2nc(OC[C@@H]3CCCN3C)nc3c(F)c(-c4ccc(F)c5sc(N)c(C#N)c45)ccc23)[C@H]1C [Compound 141] | < 500 nM |
| C=CC(=O)N1CC[C@@H](N(CC)c2nc(OC[C@@H]3C[C@@H](F)CN3C)nc3c(F)c(-c4ccc(F)c5sc(N)c(C#N)c45)ccc23)[C@H]1C [Compound 142] | < 500 nM |
| C=CC(=O)N1CC[C@@H](N(C)c2nc(OC[C@@H]3C[C@@H](F)CN3CC)nc3c(F)c(-c4ccc(F)c5sc(N)c(C#N)c45)c(C(F)(F)F)cc23)[C@@H]1C [Compound 144] | < 500 nM |
| C=CC(=O)N1CC[C@@H](N(C)c2nc(OC[C@@H]3C[C@@H](F)CN3C)nc3c(F)c(-c4nc(N)cc(C)c4C(F)(F)F)c(C(F)(F)F)cc23)[C@H]1C [Compound 145] | < 500 nM |
| C=CC(=O)N1C[C@H](N(C)c2nc(OC[C@@H]3CCCN3C)nc3c(F)c(-c4ccc(F)c5sc(N)c(C#N)c45)c(C(F)(F)F)cc23)C[C@H]1C [Compound 147] | < 500 nM |
| C=CC(=O)N1C[C@H](N(C)c2nc(OC[C@@]34CCCN3C[C@H](F)C4)nc3cc(-c4ccc(F)c5sc(N)c(C#N)c45)c(F)cc23)C[C@H]1C [Compound 148] | < 500 nM |
| C=CC(=O)N1CC[C@@H](N(CC)c2nc(OC[C@@]34CCCN3C[C@H](OC)C4)nc3cc(-c4ccc(F)c5sc(N)c(C#N)c45)c(F)cc23)[C@H]1C [Compound 149] | < 500 nM |
| C=CC(=O)N1CC[C@@H](N(CC)c2nc(OC[C@@]34CCCN3C[C@H](OC)C4)nc3c(F)c(-c4ccc(F)c5sc(N)c(C#N)c45)c(C(F)(F)F)cc23)[C@H]1C [Compound 150] | < 500 nM |
